# Results reported in BindingDB's records for doi:10.1016/j.bioorg.2015.06.003 (Gwangju Institute of Science and Technology, 2015).
# Target: T1, P2X purinoceptor 7 (Homo sapiens, UniProt Q99572)
# T1 sequence (Q99572 whole entry): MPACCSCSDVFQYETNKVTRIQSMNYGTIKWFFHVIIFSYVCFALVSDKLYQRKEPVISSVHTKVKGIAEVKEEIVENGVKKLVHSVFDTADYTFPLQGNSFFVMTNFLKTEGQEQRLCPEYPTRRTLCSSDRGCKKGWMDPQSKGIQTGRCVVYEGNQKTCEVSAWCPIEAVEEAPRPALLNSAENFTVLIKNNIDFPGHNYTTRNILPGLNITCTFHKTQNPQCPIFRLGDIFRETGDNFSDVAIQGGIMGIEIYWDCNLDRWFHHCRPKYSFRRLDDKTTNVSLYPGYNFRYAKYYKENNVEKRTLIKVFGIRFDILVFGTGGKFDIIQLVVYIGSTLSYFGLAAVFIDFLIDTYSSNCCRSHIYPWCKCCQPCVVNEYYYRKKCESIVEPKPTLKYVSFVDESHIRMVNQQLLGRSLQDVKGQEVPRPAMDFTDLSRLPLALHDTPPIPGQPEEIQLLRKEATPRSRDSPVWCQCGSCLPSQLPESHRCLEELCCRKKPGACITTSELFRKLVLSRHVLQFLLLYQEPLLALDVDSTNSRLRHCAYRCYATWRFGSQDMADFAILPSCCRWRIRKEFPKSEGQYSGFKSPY
# Assay: Ethidium Bromide Uptake Assay
# Conditions: pH 7.4
# Experimental: hP2X7-expressing HEK 293 cells were re-suspended at 2.5 × 10^6 cells/mL in assay buffer composed of 10 mM HEPES, 5 mM N-methyl-D-glutamine, 5.6 mM KCl, 10 mM D-glucose, and 0.5 mM CaCl2 (pH 7.4) supplemented with either 280 mM sucrose or 140 mM NaCl, and an 80 µL aliquot was added to each well of a 96-well plate. To each compound were added and KN-62 as the positive control, followed by the hP2X7R agonist benzoyl ATP (BzATP). The plates were incubated at 37 °C for 2 h and the cellular accumulation of ethidium ion was determined by measuring fluorescence (excitation = 530 nm; emission = 590 nm).
row,IC50 [nM],SMILES
1,1100,"CC12CC3CC(C)(C1)CC(C(=O)NNc1ccnc4c(Cl)cccc14)(C3)C2 [N'-(8-Chloroquinoline-4-yl)-3,5-dimethyladamantanehydrazide (9j)]"
2,3700,"CC12CC3CC(C)(C1)CC(C(=O)NNc1cnc4ccccc4c1)(C3)C2 [3,5-Dimethyl-N'-(quinolin-3-yl)adamantane-1-carbohydrazide (9h)]"
3,5500,"CC12CC3CC(C)(C1)CC(C(=O)NNc1ncnc4ccccc14)(C3)C2 [3,5-Dimethyl-N'-(quinazolin-4-yl)adamantane-1-carbohydrazide (9k)]"
4,2880,"CC12CC3CC(C)(C1)CC(C(=O)NNc1ncnc4nc[nH]c14)(C3)C2 [3,5-Dimethyl-N'-(7H-purin-6-yl)adamantane-1-carbohydrazide (9n)]"
5,176,"CC12CC3CC(C)(C1)CC(C(=O)NNc1nc(Cl)nc4nc[nH]c14)(C3)C2 [N'-(2-Chloro-7H-purin-6-yl)-3,5-dimethyladamantane-1-carbohydrazide (9o)]"
6,726,"CC12CC3CC(C)(C1)CC(C(=O)NNc1ccnc4ccccc14)(C3)C2 [3,5-Dimethyl-N'-(quinolin-4-yl)adamantane-1-carbohydrazide (9g)]"
7,2900,"CC12CC3CC(C)(C1)CC(C(=O)NNc1ccc4ccccc4n1)(C3)C2 [3,5-Dimethyl-N'-(quinolin-2-yl)adamantane-1-carbohydrazide (9i)]"
